In one data set the test system is SUDHL-2 cells. Nature of the data set: Cell viability by trypan blue assay, SUDHL-2. Type of data set: cell-based. To be noted: SUDHL-2, in comparison to PBS treated control cells. How it is done:
(§1) Cell viability was performed using trypan blue-based assay (n=3 technical triplicate), data represented as mean±(SEM), * represents the statistical analysis were performed relative to Scr-γtcPNA-155 and ♦ represent analysis performed relative to PNA-155. *p<0.05, **p<0.01, ***p<0.001 and ****p<0.0001, ♦p<0.05, ♦♦p<0.01, unpaired two-tailed t-test was used for statistical analysis. The experiment was repeated three times and in triplicate.
(§2) Cell viability was performed using trypan blue-based assay (n=3), data represented as mean±standard error mean (SEM), *p<0.05, **p<0.01. Unpaired two-tailed t-test was used for statistical analysis.
(§3) Cell viability was performed using trypan blue-based assay (n=3), data represented as mean±standard error mean (SEM).
(§4) Cell viability by trypan blue assay: Diffused large B cell lymphoma (DLBCL) cell lines like SUDHL-2 (ATCC® CRL-2956™) and SUDHL-5 (ATCC® CRL-2958™) cells were purchased from ATCC (Virginia, USA). The cells were regularly tested for Mycoplasma contamination using MycoAlert™ Mycoplasma detection kit (Lonza). All the cells used in the experiment were passaged less than 8 times. 10,000 U2932, SUDHL-5, or SUDHL-2 cells were plated in a 96 well plate. The cells were treated with different doses (500 nM, 1000 nM, 2000 nM and 4000 nM) of PNA-155, gamma tcPNA-155 or Scr-γtcPNA-155 for 48 hrs in an incubator (37° C. and 5% CO2). The dead cells were marked with trypan blue. Further counting was performed using an automated cell counter (Bio-rad).

The subject of the next data set is PBMC cells. Nature of the data set: Safety assessment by trypan blue assay in PBMC. The data set is classed as cell-based. The settings on record: 500-4000 nM, 48 hours. As for the experimental part: Control is PBS treated PBMC cells. n=3, data represented as mean±standard error mean (SEM).
Safety assessment by trypan blue assay […] blood mononuclear cells (PBMC) (ATCC® PCS-800-011™) were purchased from ATCC (Virginia, USA). The cells were regularly tested for Mycoplasma contamination using MycoAlert™ Mycoplasma detection kit (Lonza). All the cells used in the experiment were passaged less than 2 times. 10,000 PBMC cells were seeded in a 96 well plate. The cells were treated with 500 nM, 1000 nM, 2000 nM and 4000 nM PNA-155 and γtcPNA-155 for 48 hrs in an incubator. The dead cells were examined with trypan blue and further counted using an automated cell counter (Bio-rad).

The subject of another data set is U2932 cells. The data set is described as follows: Cell viability by trypan blue assay, U2932. To be noted: U2932, in comparison to PBS treated control cells. The data set is classed as cell-based, human. As for the experimental part:
as §1, §2, §3, §4

For data set [1], the system named is U2932 subcutaneous tumors. Nature of the data set: Tumor growth in U2932 derived xenograft model. The data set is classed as in vivo, NSG mice. To be noted: intra-tumoral injections days 0, 7, 14. As for the experimental part:
Mouse tumor xenograft: Female NSG mice (NOD.Cg-Prkdcscid Il2rgtm1Wjl/SzJ, strain 005557) weighing 20-23 g were procured from Jackson laboratories. 1×10^7 U2932 cells suspended in RPMI-1640 medium were injected subcutaneously in the right and left flank of 6-week-old NSG mice. The mice developed a small bump in 2 weeks. When the tumor volume reached 100-200 mm^3, the mice were randomly assigned to the treatment group (n=6 per group).
(§5) RNA and Protein extraction from tumor samples: The mice were injected intra-tumorally with 1 mg kg-1 dose of PNA-155, γtcPNA-155, γPNA-155, Scr-γtcPNA-155 or were untreated. The injections were repeated two additional times after 1 week each. The length, breadth, and depth of the tumors were measured daily using a vernier caliper. The mice were euthanized when the tumor volumes reached 2000 mm^3. The resected tumor sections were finely minced using a sterile blade and suspended in dissociation media (4 ml) comprising of RPMI-1640, 1.2 mg/ml dispase, and 0.5 mg/ml collagenase for 90 mins at 500 rpm at 37° C. The dissociated tumors were washed with buffer saline at 2500 rpm (4 mins) at 4° C. and then suspended in 0.25% trypsin for 4 mins at room temperature. RPMI 1640 media was added to the trypsinized tumor mass, and the cells were passed through a 70 um filter. The cells were centrifuged at 2500 rpm for 4 mins at 4° C. The cell pellet was then suspended in 1×RBC lysis buffer (Sigma) and incubated on ice for 10 mins. PBS was added to the cells and the cells were passed through a 40 um filter. The cells were centrifuged at 2500 rpm for 4 mins at 4° C. The cell pellet was resuspended in 0.5% BSA in PBS. The mouse cells were removed from the tumor cells using a mouse cell depletion kit (Miltenyi Biotec) according to the manufacturer's protocol. The enriched tumor cells from each tumor sample were divided into two fractions. RNA for gene expression analysis was extracted from one tumor fraction by the same procedure as mentioned earlier. The protein for western blot analysis was extracted from the second fraction using the method described above.
For the efficacy study, each mouse received three intra-tumoral injections of either γtcPNA-155, γPNA-155 or PNA-155 on days 0, 7, 14. We noticed that the control and scrambled treated tumors reached 2000 mm^3 much faster during our study, so we could not inject a third time in these mice. […] In contrast, as stated earlier, there was no effect on the control and scrambled PNA control on the tumor volume.

The next data set deals with SUDHL-5 cells. The data set is described as follows: Cell viability by trypan blue assay, SUDHL-5. Type of data set: cell-based. The settings on record: SUDHL-5, in comparison to PBS treated control cells. How it is done:
as §1, §2, §3, §4

In data set [2] the test system is miR-155. Nature of the data set: miR-155 gene expression in U2932 tumor samples after in vivo treatment. Further details: species or system NSG mice. To be noted: U2932 xenograft. As for the experimental part: (§6) FIGS. 22A-D show in vivo gene expression and protein level analysis. (22A) miR-155 gene expression levels in U2932 tumor samples after in vivo treatment with indicated PNAs. Data was normalized with average control U6 (n=4, data represented as mean±standard error mean). ***p<0.001 (22B) Gene expression level of downstream target genes of miR-155: MCL1 in U2932 tumor samples after treatment with total 3 mg kg-1 dose of Scr-γtcPNA-155, PNA-155, γPNA-155 and γtcPNA-155 and normalized with average control GAPDH (n=3, data represented as mean±SEM), unpaired two-tailed t-test was performed for analysis). *p<0.05, **p<0.01 (22C) Representative western blot of Mcl-1 protein and its quantification (n=3 technical replicate) in U2932 tumor samples treated with total 3 mg kg-1 dose of Scr-γtcPNA-155, PNA-155 and γtcPNA-155. Data is represented as mean±SEM and unpaired two-tailed t-test was performed for analysis. *p<0.05. The relative protein levels were determined from the band intensity using ImageJ software and normalized relative to loading control and treatment control. (22D) Gene expression level of tumor suppressor proteins (FOXO3A, CUX1, SOCS1, CSF1R, JARID2, SHIP1, PICALM, PDCD4, BACH1, CASP3) in U2932 tumor samples after treatment with total 3 mg kg-1 dose of Scr-γtcPNA-155, PNA-155, γPNA-155 and γtcPNA-155 and normalized with average control GAPDH (n=3, data represented as mean±SEM, unpaired two-tailed t-test was performed for statistical analysis). *p<0.05, **p<0.01.
as §5, with “The mouse cells were removed from the tumor cells using a mouse cell depletion kit (Miltenyi Biotec) according to the manufacturer's protocol. The enriched tumor cells from each tumor sample were divided into two fractions. RNA for gene expression analysis was extracted from one tumor fraction by the same procedure as mentioned earlier. The protein for western blot analysis was extracted from the second fraction using the method described above.” left out

Data set [3] concerns miR-155 downstream genes. Nature of the data set: Downstream gene expression and protein levels in U2932 tumor samples. The data set is classed as in vivo, NSG mice. The settings on record: U2932 xenograft. As for the experimental part: as §6
Data is represented as mean±SEM and unpaired t-test was used for statistical analysis *p<0.05. The relative protein levels were determined from the band intensity using ImageJ software and normalized relative to loading control and treatment control.
Data is represented as mean±SEM and unpaired t-test was used for statistical analysis.
Data is represented as mean±SEM and unpaired t-test was used for statistical analysis. The relative protein levels were determined from the band intensity using ImageJ software and normalized relative to loading control and treatment control.
as §5

The subject of data set [4] is miR-155 downstream genes. Nature of the data set: Gene expression of miR-155 downstream genes by RT-PCR in U2932 cells. Type of data set: cell-based, human. The settings on record: U2932, 500 nM, 48 hours. How it is done:
(§7) FIGS. 3A-F show cell culture-based functional assay in U2932 lymphoma cells. (3A) γtcPNA-155-TAMRA uptake in the U2932 lymphoma cell line: Representative flow cytometry traces of TAMRA fluorescence in U2932 cells after treatment with 500 nM dose of γtcPNA-155-TAMRA for 48 hours. The data was analyzed by FlowJo software. (3B) Normalized miR-155 gene expression levels in U2932 after treatment with phosphate buffer saline (PBS) as a control and with 500 nM dose of Scr-γtcPNA-155, PNA-155, γPNA-155 and γtcPNA-155 for 48 hours compared to average control U6 (n=3), data represented as mean±standard error mean (SEM), Statistical analysis was performed using Unpaired two-tailed t-test. Further, statistical analysis was performed relative to Scr-γtcPNA-155 treated cells. ***p<0.001. (3C) Gene expression level of miR-155 downstream genes, tumor suppressor proteins (FOXO3A, CUX1, SOCS1, CSF1R, JARID2, SHIP1, PICALM, PDCD4, BACH1, WEE1, TP53TG3, CASP3, PTEN) in U2932 cell line after treatment with PBS as a control and with after treatment with 500 nM of Scr-γtcPNA-155, PNA-155, γPNA-155 and γtcPNA-155 for 48 hours. Data is normalized with average GAPDH control (n=3), and represented as mean±SEM, *p<0.05. Unpaired two-tailed t-test was used for statistical analysis and analysis was performed relative to Scr-γtcPNA-155 treated cells. (3D) Gene expression level of miR-155 downstream genes MCL1 in U2932 cell line after treatment with PBS as a control and 500 nM of Scr-γtcPNA-155, PNA-155, γPNA-155 and γtcPNA-155 for 48 hours. Data is normalized with average GAPDH control (n=3), and represented as mean±SEM, *p<0.05, **p<0.01 and ***p<0.001. Statistical analysis was performed using Unpaired two-tailed t-test. Analysis was performed relative to Scr-γtcPNA-155 treated cells. (3E) Representative western blot of Mcl-1 and its quantification (n=3 technical replicate) and (3F) Caspase-3 protein and its quantification (n=3 technical replicate) in U2932 cell line after treatment with 500 nM of Scr-γtcPNA-155, PNA-155 and γtcPNA-155 for 48 hours. Data is represented as mean±SEM and unpaired two-tailed t-test was used for statistical analysis. *p<0.05 **p<0.01. Numbers above western blot panels represent relative quantification of the respective bands using ImageJ software and normalized relative to loading control and treatment control.
Gene expression by RT-PCR: 400,000 U2932 cells were seeded in a 12 well plate. The cells were treated with 500 nM PNA-155, gamma tcPNA-155, gamma PNA-155, Scr gamma tcPNA-155 or were PBS treated (control) for 48 hrs in an incubator (37° C. and 5% CO2). The cells were centrifuged at 2000 rpm for 4 mins at 4° C. The total RNA from the cell pellet was extracted using RNeasy® mini kit (Qiagen). The cDNA was prepared in thermal cycler (Bio-rad) using reverse transcriptase, RNase inhibitor, dNTPs, nuclease-free water and RT primers specific for miR-155 and U6. Random primers were used for the preparation of cDNA for downstream targets. The cDNA was amplified using miR-155 assay, U6 assay, or specific downstream target assays in CFX Connect™ Real-time PCR detection system (Bio-rad). The samples were subjected to polymerase activation (95° C. for 10 mins), followed by 40 cycles of denaturation (95° C. for 15 sec) and annealing (60° C. for 1 min). The 2^−ΔΔCT method was used to calculate the fold change in target genes.

In data set [5] the test system is miR-155. The data set is described as follows: miR-155 gene expression by RT-PCR in U2932 cells. The data set is classed as cell-based, human. To be noted: U2932, 500 nM, 48 hours, relative to scrambled control. As for the experimental part: as §7, with “Statistical analysis was performed using Unpaired two-tailed t-test. Analysis was performed relative to Scr-γtcPNA-155 treated cells.” left out, “Data is represented as mean±SEM and unpaired two-tailed t-test was used for statistical analysis. *p<0.05 **p<0.01.” left out, “control. […]” for “control.”

Turning to “Scr-γtcPNA-155: scrambled γtcPNA-155 synthesized as a control, SEQ ID NO: 4 (ACNTGCCATTNCACGAACNCT; gamma PNA backbone; scramble sequence; misc_feature 1 Arg-Arg-adenine-thymine-pseudoisocytosine-thymine -adenine-11-amino-3,6,9-trioxaundecanoic acid covalently linked to the backbone; modified_base 3 OTHER; n is pseudoisocytosine; modified_base 11 OTHER; misc_feature 21 Arg-Arg covalently linked to the backbone; modified_base 19 OTHER; modified_base 1..21 OTHER; peptid) [reference compound]”, the “effect on cell viability” value with SUDHL-2 cells, in the data set on U2932 cells and with SUDHL-5 cells was “did not notice any effect on cell viability” throughout. Besides, the “viability of PBMC cell lines” value in the data set on PBMC cells is listed as “do not cause any non-specific effects”. Further, in [1], the “tumor growth / tumor volume” value is reported as “no effect”. In the data set on miR-155 [2], the “miR-155 expression level in tumors (change)” value is given as “did not observe a change”. Moreover, the “alteration in gene expression in tumors” value in the data set on miR-155 downstream genes [3] is “did not notice any alteration”. In the data set on miR-155 downstream genes [3] (western blot), the “Mcl-1 protein level in tumors” value is “did not notice any alteration”.

For “γPNA-155: single-stranded full-length serine gamma PNA binding miR-155 by Watson-Crick pairing, SEQ ID NO: 1 (ACCCCTATCACGATTAGCATTAA; all peptide nucleic acid (PNA); serine gamma-PNA, two arginine residues (X1 RR) at each terminus, further chemistry not fully specified)”, in the data set with miR-155 downstream genes [4], the “de-repression of miR-155 target tumor suppressor genes” value is on record as “significant de-repression” and the “reduction in MCL1 gene expression levels” value stood at 19%. In data set [1], the “tumor growth / tumor volume” value is “reduced the tumor growth”. The same substance returned a miR-155 inhibition with miR-155 [5] of roughly 83%. Moreover, the “decrease in miR-155 gene expression in tumors” value in the data set on miR-155 [2] (intra-tumoral) is given as 80%.
